Source: patent publication US12648560B2, “Mosquito repellent composition and method for the preparation thereof” (priority 2019, dated 2026)

Experiments:
[1] = system: Aedes albopictus; assay: Behavioural (blood-feeding) repellency test on feeders covered with pig intestinal skin; type: in vivo
Method: Testing was performed as to the activity of the compositions obtained by the method according to the invention on the behaviour of the tiger mosquito, Aedes albopictus.
The behavioural tests were carried out at the Montpellier Vectopôle, which is a research centre that collaborates with the WHO for the evaluation of insecticides in public health.
The tests were carried out on mosquitoes aged 5 to 9 days old after their evolution from pupae to adult.
In preparation for the experiment, the mosquitoes were […] on the day prior thereto, in order to promote their appetite for the test to occur the subsequent day.
Each cup contains a damp cotton. The female mosquitoes were removed from the cage making use of a tube that enables aspiration thereof. They were then introduced into each experiment cup (10 mosquitoes per cup).
The tests were carried out on plexiglass racks serving as supports for glass bells known as feeders. The latter are connected to each other by plastic pipes wherein water circulates at 37° C.
Pig intestinal skin was used to mimic human skin in the experiment. The pieces of intestinal skin are positioned and stretched over the feeders.
The repellent is diluted in ethyl alcohol (aka ethanol or EtOH) and is deposited on the skin using a micropipette and then spread over the entire surface. […] If the composition tested is a mixture of at least two compounds, one of which is PMD, the said composition is diluted in ethanol at a concentration of 0.02036 mg/μL, or else is diluted in ethanol until 0.02036 mg/μL of PMD is obtained.
The feeders are turned over, then 300 μL of sheep blood are placed in each feeder. The cups are inserted under each feeder.
Polystyrene plates are inserted between the lines of repellent so as to avoid possible interactions of odours. The duration of the experiment is one hour. The cups are then placed in a freezer at −20° C. for a period of 40 minutes. After freezing, the contents of one cup are placed between two sheets of paper, with the entirety thereof then being crushed with a plexiglass plate. The counting of the blood-fed (engorged) mosquitoes is done based on the number of red dots on the sheet of paper. The results are expressed as a percentage of repellency (100%-X % of blood-feeding). The percentage of blood-feeding is defined in relation to the EtOH negative control. DEET and commercial cis/trans PMD 75/25 at 200 mg/m^2 were used as positive controls.
The results obtained were statistically analysed using R software (R Development Core Team. R: A language and environment for statistical computing. R Foundation for Statistical Computing, Vienna, Austria. ISBN 3-900051-07-0, 2013) and represent the mean of 16 replicates. The percentage repellency values are presented as the mean±standard deviation. The R software also makes it possible to compare two percentage repellency values by means of calculating the quantity p. This quantity p is a probability.

[2] = system: acetylcholinesterase; conditions: enzyme of insects as also of mammals; cited from earlier work

Row | Structure (SMILES) | % Repellency ([1]; Table 2 series, 200 mg/m^2 in EtOH, 1 h, mean ± SD) [%] | % Repellency ([1]; Table 3 series, 200 mg/m^2 in EtOH, 1 h, mean ± SD) [%] | % Repellency ([1]; Table 4 series, PMD at 200 mg/m^2 in EtOH, mean ± SD) [%] | % Repellency ([1]; Table 5 series, PMD at 200 mg/m^2 in EtOH, mean ± SD) [%] | % Repellency ([1]; Table 6 series, PMD at 200 mg/m^2 in EtOH, mean ± SD) [%] | % Repellency ([1]; Table 7 series, PMD at 200 mg/m^2 in EtOH, mean ± SD) [%] | ED 50 expressed as concentration ([1]; concentration in EtOH tantamount to 200 mg/m^2) [mg/mL] | ED 50 (median effective dose) ([1]; repellency, dose on skin surface) [mg/m^2] | % Repellency ([1]; Table 2 series, 110 mg/m^2 in EtOH, 1 h, mean ± SD of 16 replicates) [%] | % Repellency ([1]; Table 3 series, 110 mg/m^2 in EtOH, 1 h, mean ± SD) [%] | % Repellency ([1]; Table 4 series, 110 mg/m^2 in EtOH, mean ± SD) [%] | % Repellency ([1]; Table 5 series, 110 mg/m^2 in EtOH, mean ± SD) [%] | % Repellency ([1]; Table 6 series, 110 mg/m^2 in EtOH, mean ± SD) [%] | % Repellency ([1]; Table 7 series, 110 mg/m^2 in EtOH, mean ± SD) [%] | acetylcholinesterase inhibition [2]
1 | CC1CCC(C(C)(C)O)C(O)C1 (mixture of isomers) [Commercial cis/trans PMD 75/25, p-menthane-3,8-diol] | 51 ± 11 | 55 ± 1 | 31 ± 7 | 36 ± 1 | 48 ± 15 | 52 ± 12 | 20.36 | 200 | – | – | – | – | – | – | –
2 | CCN(CC)C(=O)c1cccc(C)c1 [DEET, N,N diethyl-meta-toluamide] | – | – | – | – | – | – | – | – | 76 ± 9 | 56 ± 8 | 39 ± 7 | 49 ± 17 | 73 ± 2 | 43 ± 13 | inhibits
